Measurements reported in patent publication US20240166703A1, “ANTI-INFLAMMATORY PEPTIDE AND METHOD OF USE THEREOF” (The Regents of the University of California, priority 2021, published 2024).
Entries after “also recorded” stand apart in the source; their conditions may differ.

How the values were obtained:
[1] = test system: NF-κB activation in bone marrow-derived macrophage (BMDM) cells; experiment: EMSA of NF-κB activation in LPS-treated BMDM cells; format: cell-based, C57BL/6J mice; conditions: 50 μM peptide pre-incubation
Protocol: Electrophoretic mobility shift assay (EMSA) was performed using recombinant full length NF-κB ReIA homodimer as a positive control as previously described (45). Briefly, Ig-κB probe was radiolabeled with ^32P-γ-ATP (6,000 Ci/mmol; 10 μCi/μL) and incubated with nuclear lysates for 20 minutes at room temperature in binding buffer (10 mM Tris-HCl pH 7.5, 10% (v/v) glycerol, 1% (v/v) NP-40, 1 mM EDTA, and 0.1 mg/mL salmon sperm DNA). Samples separated in 4% nondenaturing polyacrylamide gels in TGE buffer (24.8 mM Tris base, 190 mM glycine, and 1 mM EDTA) at 200 V for 1 hour, and the gel was dried. The amount of protein in lysates was quantified by Bio-Rad protein assay. EMSA analysis with quantitative densitometry and signal intensity was quantitated using ImageJ software. All EMSA experiments were performed in triplicate.
With the approval of the UCSD and Veteran Affairs San Diego Institutional Animal Care and Use Committees (IACUC), bone marrow-derived macrophage (BMDM) cells were isolated from 6-8 weeks old C57BL/6J mice (Jackson Laboratory) followed by erythrocyte lysis with ammonium chloride, and then seeded in 12-well plates at a concentration of 1×10^6 cells/mL. Cultured cells were differentiated to macrophages with culture media containing monocyte-colony stimulating factor (M-CSF; 10 ng/mL). […]

[2] = biological target: T1, polyubiquitin-dependent second interaction between NEMO and IKK2 (Homo sapiens, UniProt O14920); experiment: Peptide in vitro GST pull-down from HA-IKK2-transfected HEK293T whole cell lysates; format: binding; conditions: peptide 200-25 μM
T1 construct: proteins of HEK293T cells expressing full length human IKK2 were extracted; expressed in transfected cells; host or cells: HEK293T whole cell lysate supplied HA-IKK2; GST-NEMO 241-419 was expressed in E. coli Rosetta (DE3)
T1 sequence (O14920 1-756): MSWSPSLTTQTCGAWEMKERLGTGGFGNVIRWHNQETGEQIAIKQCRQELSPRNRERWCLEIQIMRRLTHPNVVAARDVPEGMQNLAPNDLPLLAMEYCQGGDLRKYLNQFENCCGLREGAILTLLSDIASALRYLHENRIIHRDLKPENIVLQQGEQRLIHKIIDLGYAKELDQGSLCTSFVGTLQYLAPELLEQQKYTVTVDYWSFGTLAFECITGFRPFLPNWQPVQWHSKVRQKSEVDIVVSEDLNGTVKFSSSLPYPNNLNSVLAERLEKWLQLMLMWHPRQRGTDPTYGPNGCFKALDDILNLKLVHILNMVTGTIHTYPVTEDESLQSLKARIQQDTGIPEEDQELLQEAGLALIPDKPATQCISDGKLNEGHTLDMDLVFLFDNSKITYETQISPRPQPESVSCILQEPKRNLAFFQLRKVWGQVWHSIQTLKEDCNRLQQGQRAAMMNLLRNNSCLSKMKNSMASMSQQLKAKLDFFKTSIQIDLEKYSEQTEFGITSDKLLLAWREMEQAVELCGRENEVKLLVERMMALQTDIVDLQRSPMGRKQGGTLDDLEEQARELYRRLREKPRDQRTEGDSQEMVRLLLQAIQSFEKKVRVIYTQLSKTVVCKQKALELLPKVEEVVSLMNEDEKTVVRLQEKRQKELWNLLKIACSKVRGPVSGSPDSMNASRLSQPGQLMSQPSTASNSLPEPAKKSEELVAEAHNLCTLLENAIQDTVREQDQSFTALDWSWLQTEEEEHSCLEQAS
Protocol: Proteins of HEK293T cells transfected with full length human IKK2 or mutants were extracted using RIPA buffer. After centrifugation at 16,000×g for 20 minutes, the supernatants were adjusted to the binding buffer (containing 1.5 mU Hexokinase) and incubated on a rotating platform for 1 hour at 4° C. These whole-cell extracts were then incubated with E. coli-expressed GST-fusion NEMO in the absence or presence of Ub4 on a rotating platform for 2 hours at 4° C. The beads were centrifuged at 1,000×g for 2 minutes and washed four times in binding buffer. Proteins bound to beads were resuspended in SDS loading buffer, resolved by SDS-PAGE, and analyzed by western blot.
For peptide in vitro pull-down assay, proteins of HEK293T cells expressing full length human IKK2 were extracted using the same lysis buffer described above. Whole cell lysates were mixed with E. coli-expressed GST-NEMO with or without NEMO^ActPep or mNEMO^ActPep at different concentrations in the absence of presence of Ub4 and incubated on a rotating platform for 2 hours at 4° C. The beads were then washed four times in the binding buffer. Proteins bound to beads were resuspended in SDS-PAGE loading buffer, separated by SDS-PAGE, and analyzed by western blot. […]

[3] = test system: constitutive nuclear transcription factor Oct1; experiment: EMSA of Oct1 binding to its probe, HeLa nuclear extracts; format: cell-based, human; conditions: peptide 10-50 μM

binding of Oct1 to its probe (EMSA) [3]: not affected
Substance: TAT-NEMO^ActPep: HIV-1 TAT fused flexibly to human NEMO amino acids 375-391; cell permeable version of NEMO activation peptide (SEQ ID NO 2) (YGRKKRRQRRRGGLSSPLALPSQRRSPPEE)
NF-κB activation in response to LPS (EMSA) [1]: inhibition of NF-κB activation; also recorded: disrupts NF-κB-dependent shift of the radiolabeled probe
HA-IKK2 pulled down by GST-NEMO^241-419 in the presence of Ub4 (NEMO:IKK2 second interaction, western blot) [2]: loss of this interaction was observed with increasing concentrations
